# From patent publication US7015228B2, “4-amino-2-(2-pyridyl)pyrimidines as microbicidal active substances” (Ciba Specialty Chemicals Corporation, priority 2001, dated 2006)
# Read-outs that look alike come from different tables or passages of the source.
# Assays:
# [1] = test system: S. choleraesuis ATCC 10708; assay: Determination of the bactericidal activity (logarithmic reduction in organism count); assay type: cell-based, Salmonella choleraesuis; conditions: contact for 30 minutes at a substance concentration of 120 μg/mL
# Procedure: (§1) Determination of the Bactericidal Activity of Selected Compounds
# (§2) Casein-soybean flour-peptone broth for preparation of pre-cultures of test bacteria
# (§3) Examples of Test Organisms:
# (§4) • Staphylococcus aureus ATCC 6538 • Escherichia coli ATCC 10536 • Salmonella choleraesuis ATCC 10708 Procedure:
# (§5) The test substances are dissolved in dimethyl sulfoxide (DMSO) and tested in a concentration of 120 μg/ml.
# (§6) Bacteria are incubated overnight in CASO broth and adjusted to an organism count of 1–5×10^5 CFU/ml using 0.85% sodium chloride solution.
# (§7) The test substances are pre-pipetted into microtitre plates in amounts of 8 μl per well.
# (§8) The adjusted test organism suspensions are added in amounts of 192 μl per well to the test substances and mixed. After defined contact times, the test batches are mixed, an aliquot is withdrawn and diluted in several steps in a dilution series of 1:10 in a suitable inactivation medium.
# The test plates are incubated for 24 hours at 37° C. […]
# (§9) One microtitre plate is used for each test organism.
# (§10) All the substances are tested in duplicate.
# E. coli NCTC 8196 = assay: as above; assay type: cell-based, Escherichia coli; conditions: contact for 30 minutes at a substance concentration of 120 μg/mL
# S. aureus ATCC 6538 = assay: as above; assay type: cell-based, Staphylococcus aureus; conditions: contact for 30 minutes at a substance concentration of 120 μg/mL
# Procedure: as §1, §2, §3, §4, §5, §6, §7, §8
# The test plates are incubated for 24 hours at 37° C.
# (§11) After incubation, the growth is determined on the basis of the turbidity of the test batches (optical density) at 620 nm in a microplate reader.
# as §9, §10
# [2] = test system: Escherichia coli NCTC 8196; assay: Minimum inhibitory concentration (MIC) in microtitre plates; assay type: cell-based; conditions: for MIC: Escherichia coli, NCTC8196
# Procedure: (§12) Determination of the Minimum Inhibitory Concentration (MIC Value) in Microtitre Plates
# (§13) Casein-soybean flour-peptone broth for preparation of pre-cultures of test bacteria and yeast.
# (§14) Mycological slant agar for the pre-culture of moulds
# as §3
# (§15) The test substances are pre-dissolved in dimethyl sulfoxide (DMSO) and tested in a dilution series of 1:2.
# (§16) Bacteria and yeast are cultured overnight in CASO broth, the mould is cultured overnight on mycological slant agar, and washed off using 10 ml of 0.85% sodium chloride solution (+0.1% Triton X-100).
# (§17) All the test organisms are adjusted to an organism count of 1–5×10^6 CFU/ml using 0.85% sodium chloride solution.
# as §7
# (§18) Pre-diluted organism suspensions are diluted 1:100 in CASO broth (bacteria and yeast) or Sabouraud 2% glucose broth (mould) and are added in amounts of 192 μl per well to the test substances.
# (§19) The test batches are incubated for 48 hours at 37° C. (bacteria and yeast) or for 5 days at 28° C. (mould).
# as §11
# (§20) The minimum inhibitory concentration (MIC value) is the concentration of substance at which there is found (compared to the growth of the control) an appreciable inhibition of growth (≦20% growth) of the test organisms.
# (§21) One microtitre plate is used for each test organism and substance concentration. All the substances are tested in duplicate.
# [3] = test system: Staphylococcus hominis DMS 20328; assay: as above; assay type: cell-based; conditions: Table 7, 48 hours at 37° C., MIC = ≦20% growth compared to control; for MIC: Staphylococcus hominis, DMS20328, read-out: Minimum inhibitory concentration (MIC) S. hominis
# Procedure: as §12, §13, §14, §3, §15, §16, §17, §7, §18, §19, §11, §20, §21
# [4] = test system: Enterococcus hirae ATCC 10541; assay: Minimum inhibitory concentration (MIC), further microorganisms; assay type: cell-based; conditions: Table 8, * = significant inhibition of growth, but not complete inhibition; for MIC: Enterococcus hirae, ATCC10541
# Procedure: as §12, §13, §14, §15, §16, §17, §7, §18, §19, §11, §20, §21
# [5] = test system: Epidermophyton floccosum DSM 10709; assay: as above; assay type: cell-based; conditions: Table 8, * = significant inhibition of growth, but not complete inhibition; for MIC: Epidermophyton floccosum, DSM10709
# Procedure: as §12, §13, §14, §15, §16, §17, §7, §18, §19, §11, §20, §21
# [6] = test system: Micrococcus luteus ATCC 9341; assay: as above; assay type: cell-based; conditions: Table 8, * = significant inhibition of growth, but not complete inhibition; for MIC: Micrococcus luteus, ATCC9341
# Procedure: as §12, §13, §14, §15, §16, §17, §7, §18, §19, §11, §20, §21
# [7] = test system: S. epidermidis ATCC 12228; assay: as above; assay type: cell-based; conditions: Table 8, * = significant inhibition of growth, but not complete inhibition; for MIC: Staphylococcus epidermidis, ATCC12228
# Procedure: as §12, §13, §14, §15, §16, §17, §7, §18, §19, §11, §20, §21
# [8] = test system: Staphylococcus aureus ATCC 9144; assay: as above; assay type: cell-based; conditions: Table 8, * = significant inhibition of growth, but not complete inhibition; for MIC: Staphylococcus aureus, ATCC9144
# Procedure: as §12, §13, §14, §15, §16, §17, §7, §18, §19, §11, §20, §21
# [9] = test system: Trichophyton mentagrophytes ATCC 9533; assay: as above; assay type: cell-based; conditions: Table 8, * = significant inhibition of growth, but not complete inhibition; for MIC: Trichophyton mentagrophytes, ATCC9533
# Procedure: as §12, §13, §14, §15, §16, §17, §7, §18, §19, §11, §20, §21
# [10] = Table 7, 48 hours at 37° C., MIC = ≦20% growth compared to control
# [11] = Table 8, * = significant inhibition of growth, but not complete inhibition
# [12] = Table 7, 48 hours at 37° C., MIC = ≦20% growth compared to control, read-out: Minimum inhibitory concentration (MIC) E. coli
# [13] = Table 8, * = significant inhibition of growth, but not complete inhibition, read-out: Minimum inhibitory concentration (MIC) E. coli NCTC 8196
SMILES,"Minimum inhibitory concentration (MIC) E. coli [2, 10] [µg/mL]","Minimum inhibitory concentration (MIC) E. coli NCTC 8196 [2, 11] [µg/mL]",Minimum inhibitory concentration (MIC) S. hominis [3] [µg/mL],Minimum inhibitory concentration (MIC) Enterococcus hirae ATCC 10541 [4] [µg/mL],Minimum inhibitory concentration (MIC) Epidermophyton floccosum DSM 10709 [5],Minimum inhibitory concentration (MIC) Micrococcus luteus ATCC 9341 [6] [µg/mL],Minimum inhibitory concentration (MIC) S. epidermidis ATCC 12228 [7] [µg/mL],Minimum inhibitory concentration (MIC) Staphylococcus aureus ATCC 9144 [8] [µg/mL],Minimum inhibitory concentration (MIC) Trichophyton mentagrophytes ATCC 9533 [9],"Logarithmic reduction in organism count, S. choleraesuis ATCC 10708 [1] [log]","Logarithmic reduction in organism count, E. coli NCTC 8196 (E. coli NCTC 8196)","Logarithmic reduction in organism count, S. aureus ATCC 6538 (S. aureus ATCC 6538)",further results
CC(C)(C)c1cc(NCCc2ccccc2)nc(-c2ccccn2)n1 [Compound of formula 63],,,,,,,,,,<1,≦1 log,<1 log,
Cc1cc(NCCCCCCCCCCCCN)nc(-c2ccccn2)n1 [Compound of formula 19],,,,,,,,,,<1,≦1 log,2–3 log,
CCCCCCCCCCCCNc1cc(C(C)C)nc(-c2ccccn2)n1 [Compound of formula 48],,,,,,,,,,<1,<1 log,1 log,
CCCCCCCCCCNc1cc(C(F)(F)F)nc(-c2ccccn2)n1 [compound 35],,,,,,,,,,,,,"MIC [2, 12]: > 120 µg/mL; MIC [2, 13]: > 60 µg/mL; MIC [3]: 3.75 µg/mL; MIC [4]: 7.5 µg/mL; MIC [5]: > 60 µg/mL; MIC [6]: < 0.5 µg/mL; MIC [7]: 7.5 µg/mL; MIC [8]: 7.5 µg/mL; MIC [9]: > 60 µg/mL"
CCCCCCCCCCNc1cc(C)nc(-c2ccccn2)n1 [compound 23],>120,>60,3.75,3.75,*15 μg/mL,<0.5,7.5,7.5,15 µg/mL,,,,
CCCCCCCNc1cc(C(C)C)nc(-c2ccccn2)n1 [compound 44],,,,,,,,,,,,,"MIC [2, 12]: > 120 µg/mL; MIC [2, 13]: > 30 µg/mL; MIC [3]: 3.75 µg/mL; MIC [4]: 15 µg/mL; MIC [5]: 60 µg/mL; MIC [6]: 1 µg/mL; MIC [7]: 15 µg/mL; MIC [8]: 15 µg/mL; MIC [9]: > 60 µg/mL"
CCCCCCCCCNc1nc(-c2ccccn2)nc(C)c1CC [compound 10],>80,>60,5,30,60 µg/mL,<0.5,15,15,60 µg/mL,,,,

# Further lines, with some results ahead:
"Minimum inhibitory concentration (MIC) E. coli [2, 10] [µg/mL]","Minimum inhibitory concentration (MIC) E. coli NCTC 8196 [2, 11] [µg/mL]",Minimum inhibitory concentration (MIC) S. hominis [3] [µg/mL],Minimum inhibitory concentration (MIC) Enterococcus hirae ATCC 10541 [4] [µg/mL],Minimum inhibitory concentration (MIC) Epidermophyton floccosum DSM 10709 [5],Minimum inhibitory concentration (MIC) Micrococcus luteus ATCC 9341 [6] [µg/mL],Minimum inhibitory concentration (MIC) S. epidermidis ATCC 12228 [7] [µg/mL],Minimum inhibitory concentration (MIC) Staphylococcus aureus ATCC 9144 [8] [µg/mL],Minimum inhibitory concentration (MIC) Trichophyton mentagrophytes ATCC 9533 [9],SMILES,"Logarithmic reduction in organism count, S. choleraesuis ATCC 10708 [1] [log]","Logarithmic reduction in organism count, E. coli NCTC 8196 (E. coli NCTC 8196)","Logarithmic reduction in organism count, S. aureus ATCC 6538 (S. aureus ATCC 6538)",further results
>120,>60,3.75,30,60 µg/mL,3.75,30,30,>60 µg/mL,CCCCCCCCCNc1cc(C(C)C)nc(-c2ccccn2)n1 [compound 46],,,,
>120,>60,3.75,1.0,60 µg/mL,<0.5,1.9,1.9,*60 μg/mL,CCCCCCCCNc1cc(C(C)(C)C)nc(-c2ccccn2)n1 [compound 57],,,,
>120,>60,3.75,1.9,*30 μg/mL,<0.5,3.75,3.75,*30 μg/mL,CCCCCCCNc1cc(C(C)(C)C)nc(-c2ccccn2)n1 [compound 56],,,,
